Turning to `O=c1[nH]c2ccc(C3CCN(Cc4ccc(-c5ccccc5)cc4)CC3)cc2[nH]1` [5a, 5-(1-(biphenyl-4-ylmethyl)piperidin-4-yl)-1H-benzo[d]imidazol-2(3H)-one], the melting point was more than 260 °C.

On to `O=c1[nH]c2ccc(C3CCN(Cc4cncc(-c5ccccc5)c4)CC3)cc2[nH]1` [5c, 5-(1-((5-phenylpyridin-3-yl)methyl)piperidin-4-yl)-1H-benzo[d]imidazol-2(3H)-one], for which the melting point was 236 to 237 °C.

The compound `O=c1[nH]c2ccc(C3CCN(Cc4cncc(C5=CCCC5)c4)CC3)cc2[nH]1` [5f, 5-(1-((5-cyclopentenylpyridin-3-yl)methyl)piperidin-4-yl)-1H-benzo[d]imidazol-2(3H)-one] had a melting point of 249 to 250 °C.

In the case of `O=c1[nH]c2ccc(N3CCN(Cc4ccc(-c5ccccc5)cc4)CC3)cc2[nH]1` [6a, 5-(4-(biphenyl-4-ylmethyl)piperazin-1-yl)-1H-benzo[d]imidazol-2(3H)-one], the melting point was more than 260 °C.

`O=c1[nH]c2ccc(N3CCN(CC4(F)C=CC(c5ccccc5)=CC4)CC3)cc2[nH]1` (centres unmarked) [6b, 5-(4-((4-Fluorobiphenyl-4-yl)methyl)piperazin-1-yl)-1H-benzo[d]imidazol-2(3H)-one] had a melting point of more than 260 °C.

In turn, `O=c1[nH]c2ccc(N3CCN(Cc4cncc(-c5ccc(F)cc5)c4)CC3)cc2[nH]1` [6d, 5-(4-((5-(4-fluorophenyl)pyridin-3-yl)methyl)piperazin-1-yl)-1H-benzo[d]imidazol-2(3H)-one] yielded a melting point of 246 to 247 °C.

Regarding `O=c1[nH]c2ccc(N3CCN(Cc4cccc(C5=CCCC5)c4)CC3)cc2[nH]1` [6e, 5-(4-(3-cyclopentenylbenzyl)piperazin-1-yl)-1H-benzo[d]imidazol-2(3H)-one], the melting point was in the range of 244 to 245 °C.

Regarding `O=c1[nH]c2ccc(N3CCN(Cc4cncc(C5=CCCC5)c4)CC3)cc2[nH]1` [6f, 5-(4-((5-cyclopentenylpyridin-3-yl)methyl)piperazin-1-yl)-1H-benzo[d]imidazol-2(3H)-one], the melting point was in the range of 255 to 256 °C.
